Test results from ChEMBL document CHEMBL1123664, “Preparation and antitumor activity of new mitomycin A analogues” (J Med Chem, 1987).
“And” between values parts separate entries of the source, which are not always exact repeats. Equal entries are not always repeated.

Assays:
[1] = system: P388; assay: Antitumor activity against intraperitoneally implanted P388 leukemia cells in mice at an optimal dose of 12.8 mg/kg expressed as […] effective dose; assay type: functional; conditions: Mus musculus, P388, ip, route intraperitoneal, read-out: MED
[2] = system: P388; assay: Antitumor activity against intraperitoneally implanted P388 leukemia cells in mice expressed as ratio of median survival time for treated group to that of control group at an optimal dose of 12.8 mg/kg; assay type: functional, Mus musculus; conditions: route intraperitoneal
[3] = system: P388; assay: Antitumor activity against intraperitoneally implanted P388 leukemia cells in mice expressed as ratio of median survival time for treated group to that of control group at an optimal dose of 3.2 mg/kg; assay type: functional, Mus musculus; conditions: route intraperitoneal
[4] = Partition coefficient (logP); assay type: physicochemical; conditions: octanol/water
[5] = system: P388; assay: Antitumor activity against intraperitoneally implanted P388 leukemia cells in mice expressed as ratio of median survival time for treated group to that of control group at an optimal dose of 1.6 mg/kg; assay type: functional, Mus musculus; conditions: route intraperitoneal
[6] = system: P388; assay: Antitumor activity against intraperitoneally implanted P388 leukemia cells in mice at an optimal dose of 1.6 mg/kg expressed as […] effective dose; assay type: functional; conditions: Mus musculus, P388, ip, route intraperitoneal, read-out: MED
[7] = system: B16; assay: Antitumor activity against subcutaneously B16 melanoma cells in mice at an optimal dose of 1.6 mg/kg expressed as […] effective dose; assay type: functional; conditions: Mus musculus, B16, sc, route subcutaneous, read-out: MED
[8] = system: B16; assay: Antitumor activity against subcutaneously B16 melanoma cells in mice expressed as ratio of median survival time for treated group to that of control group at an optimal dose of 1.6 mg/kg; assay type: functional, Mus musculus; conditions: route subcutaneous
[9] = system: B16; assay: Antitumor activity against subcutaneously B16 melanoma cells in mice expressed as ratio of median survival time for treated group to that of control group at an optimal dose of 1.2 mg/kg; assay type: functional, Mus musculus; conditions: route subcutaneous
[10] = system: B16; assay: Antitumor activity against subcutaneously B16 melanoma cells in mice at an optimal dose of 1.2 mg/kg expressed as […] effective dose; assay type: functional; conditions: Mus musculus, B16, sc, route subcutaneous, read-out: MED
[11] = system: P388; assay: Antitumor activity against intraperitoneally implanted P388 leukemia cells in mice expressed as ratio of median survival time for treated group to that of control group at an optimal dose of 0.4 mg/kg; assay type: functional, Mus musculus; conditions: route intraperitoneal
[12] = system: P388; assay: Antitumor activity against intraperitoneally implanted P388 leukemia cells in mice at an optimal dose of 3.2 mg/kg expressed as […] effective dose; assay type: functional; conditions: Mus musculus, P388, ip, route intraperitoneal, read-out: MED
[13] = system: P388; assay: Antitumor activity against intraperitoneally implanted P388 leukemia cells in mice expressed as ratio of median survival time for treated group to that of control group at an optimal dose of 0.8 mg/kg; assay type: functional, Mus musculus; conditions: route intraperitoneal
[14] = system: B16; assay: Antitumor activity against subcutaneously B16 melanoma cells in mice expressed as ratio of median survival time for treated group to that of control group at an optimal dose of 0.8 mg/kg; assay type: functional, Mus musculus; conditions: route subcutaneous
[15] = system: P388; assay: Antitumor activity against intraperitoneally implanted P388 leukemia cells in mice at an optimal dose of 0.8 mg/kg expressed as […] effective dose; assay type: functional; conditions: Mus musculus, P388, ip, route intraperitoneal, read-out: MED
[16] = system: B16; assay: Antitumor activity against subcutaneously B16 melanoma cells in mice expressed as ratio of median survival time for treated group to that of control group at an optimal dose of 0.4 mg/kg; assay type: functional, Mus musculus; conditions: route subcutaneous
[17] = system: P388; assay: Antitumor activity against intraperitoneally implanted P388 leukemia cells in mice at an optimal dose of 0.8 mg/kg gexpressed as […] effective dose; assay type: functional; conditions: Mus musculus, P388, ip, route intraperitoneal, read-out: MED
[18] = system: B16; assay: Antitumor activity against subcutaneously B16 melanoma cells in mice at an optimal dose of 0.8 mg/kg expressed as […] effective dose; assay type: functional, Mus musculus; conditions: route subcutaneous; for minimal effective dose at 0.8 mg/kg: Mus musculus, B16, sc, read-out: MED
[19] = system: B16; assay: (§1) Antitumor activity against subcutaneously B16 melanoma cells in mice expressed as ratio of median survival time for treated group to that of control group at an optimal dose of 0.6 mg/kg; assay type: functional, Mus musculus; conditions: route subcutaneous
[20] = system: B16; assay: (§2) Antitumor activity against subcutaneously B16 melanoma cells in mice expressed as ratio of median survival time for treated group to that of control group at an optimal dose of 1-3 mg/kg; assay type: functional, Mus musculus
[21] = system: B16; assay: as §1; assay type: functional, Mus musculus; conditions: route subcutaneous; remark: listed apart in the source
[22] = system: B16; assay: Antitumor activity against subcutaneously B16 melanoma cells in mice at an optimal dose of 0.6 mg/kg expressed as […] effective dose; assay type: functional, Mus musculus; conditions: route subcutaneous
[23] = system: B16; assay: Antitumor activity against subcutaneously B16 melanoma cells in mice at an optimal dose of 0.2 mg/kg expressed as […] effective dose; assay type: functional; conditions: Mus musculus, B16, sc, route subcutaneous, read-out: MED
[24] = system: B16; assay: Antitumor activity against subcutaneously B16 melanoma cells in mice at an optimal dose of 0.4 mg/kg expressed as […] effective dose; assay type: functional; conditions: Mus musculus, B16, sc, route subcutaneous, read-out: MED
[25] = system: B16; assay: Antitumor activity against subcutaneously B16 melanoma cells in mice expressed as ratio of median survival time for treated group to that of control group at an optimal dose of 0.2 mg/kg; assay type: functional, Mus musculus; conditions: route subcutaneous
[26] = system: B16; assay: as §2; assay type: functional, Mus musculus; remark: listed apart in the source
[27] = system: B16; assay: Antitumor activity against subcutaneously B16 melanoma cells in mice expressed as ratio of median survival time for treated group to that of control group at an optimal dose of 0.3 mg/kg; assay type: functional, Mus musculus; conditions: route subcutaneous
[28] = system: B16; assay: Antitumor activity against subcutaneously B16 melanoma cells in mice at an optimal dose of 0.3 mg/kg expressed as […] effective dose; assay type: functional; conditions: Mus musculus, B16, sc, route subcutaneous, read-out: MED

Q: For `CO[C@@]12C(COC(N)=O)C3=C(C(=O)C(C)=C(OCC(O)CO)C3=O)N1CC1NC12` (some centres undefined), which minimal effective dose at 12.8 mg/kg [1] is on record?
A: 0.2 mg/kg

Q: What about the T/C [2] of the same compound?
A: 225% and 205%

Q: What does the source list for `CO[C@@]12C(COC(N)=O)C3=C(C(=O)C(C)=C(OC(C)C)C3=O)N1CC1NC12` (some centres undefined)?
A: T/C [3]: 174%; logP [4]: 1.26

Q: Which T/C [5] does the source give for `C=CCOC1=C(C)C(=O)C2=C(C1=O)C(COC(N)=O)[C@@]1(OC)C3NC3CN21` (some centres undefined) here?
A: 156%

Q: And the minimal effective dose at 1.6 mg/kg [6]?
A: 0.1 mg/kg

Q: What about the logP [4] of the same compound?
A: 0.87

Q: Which T/C [5] does the source give for `COC(COC1=C(C)C(=O)C2=C(C1=O)C(COC(N)=O)[C@@]1(OC)C3NC3CN21)OC` (some centres undefined) here?
A: 269%

Q: And the minimal effective dose at 1.6 mg/kg [7]?
A: 0.4 mg/kg

Q: What about the T/C [8] of the same compound?
A: 216%

Q: And the minimal effective dose at 1.6 mg/kg [6]?
A: < 0.025 mg/kg

Q: Which T/C [9] does the source give for `CO[C@@]12C(COC(N)=O)C3=C(C(=O)C(C)=C(OCCC#N)C3=O)N1CC1NC12` (some centres undefined) here?
A: 141%

Q: And the minimal effective dose at 1.2 mg/kg [10]?
A: 0.8 mg/kg

Q: And the T/C [11]?
A: 200%

Q: What does the source list for `CO[C@@]12C(COC(N)=O)C3=C(C(=O)C(C)=C(OCCO)C3=O)N1CC1C2N1C` (some centres undefined)?
A: T/C [3]: 222%; minimal effective dose at 3.2 mg/kg [12]: 0.05 mg/kg; logP [4]: 0.67

Q: What does the source list for `C#CCOC1=C(C)C(=O)C2=C(C1=O)C(COC(N)=O)[C@@]1(OC)C3NC3CN21` (some centres undefined)?
A: T/C [13]: 150%; T/C [14]: 204%; minimal effective dose at 0.8 mg/kg [15]: < 0.05 mg/kg; logP [4]: 0.74

Q: For `CO[C@@]12C(COC(N)=O)C3=C(C(=O)C(C)=C(OCCN4CCOCC4)C3=O)N1CC1NC12` (some centres undefined), which T/C [16] is on record?
A: 113%

Q: What about the T/C [3] of the same compound?
A: 256%

Q: And the minimal effective dose at 3.2 mg/kg [12]?
A: < 0.05 mg/kg

Q: What about the logP [4] of the same compound?
A: 0.49

Q: Which T/C [3] does the source give for `CO[C@@]12C(COC(N)=O)C3=C(C(=O)C(C)=C(OCCN(C)C)C3=O)N1CC1NC12` (some centres undefined) here?
A: 281%

Q: And the minimal effective dose at 3.2 mg/kg [12]?
A: < 0.025 mg/kg

Q: And the minimal effective dose at 1.6 mg/kg [7]?
A: 0.4 mg/kg

Q: What about the T/C [8] of the same compound?
A: 220%

Q: And the logP [4]?
A: 0.46

Q: Which minimal effective dose at 0.8 mg/kg [17] does the source give for `CO[C@@]12C(COC(N)=O)C3=C(C(=O)C(C)=C(OCC4COC(C)(C)O4)C3=O)N1CC1NC12` (some centres undefined) here?
A: < 0.05 mg/kg

Q: What about the minimal effective dose at 0.8 mg/kg [18] of the same compound?
A: 0.4 mg/kg

Q: What about the T/C [19] of the same compound?
A: 240%

Q: And the T/C [20]?
A: 133% and 147% and 170%

Q: And the T/C [13]?
A: 178%

Q: And the T/C [21]?
A: 221%

Q: What about the MED [22] of the same compound?
A: <0.3 mg/kg and 0.1 mg/kg

Q: And the T/C [14]?
A: 198%

Q: And the logP [4]?
A: 0.82

Q: For `CCOC1=C(C)C(=O)C2=C(C1=O)C(COC(N)=O)[C@@]1(OC)C3NC3CN21` (some centres undefined), which T/C [5] is on record?
A: 188%

Q: And the minimal effective dose at 0.2 mg/kg [23]?
A: 0.1 mg/kg

Q: What about the T/C [16] of the same compound?
A: 212%

Q: What about the minimal effective dose at 1.6 mg/kg [6] of the same compound?
A: < 0.05 mg/kg

Q: And the logP [4]?
A: 0.76

Q: And the minimal effective dose at 0.4 mg/kg [24]?
A: < 0.4 mg/kg

Q: What about the T/C [25] of the same compound?
A: 215%

Q: Which minimal effective dose at 0.8 mg/kg [18] does the source give for `CO[C@@]12C(COC(N)=O)C3=C(C(=O)C(C)=C(OCC4CCCO4)C3=O)N1CC1NC12` (some centres undefined) here?
A: 0.2 mg/kg

Q: What about the MED [18] of the same compound?
A: 0.2 mg/kg

Q: And the T/C [20]?
A: 133%

Q: And the T/C [13]?
A: 239%

Q: And the T/C ([14]; 0.8 mg/kg)?
A: 212% and 198%

Q: And the minimal effective dose at 0.8 mg/kg [15]?
A: < 0.05 mg/kg

Q: What about the logP [4] of the same compound?
A: 1.29

Q: What about the T/C [26] of the same compound?
A: 147%

Q: With `COC1=C(C)C(=O)C2=C(C1=O)[C@@H](COC(N)=O)[C@@]1(OC)[C@H]3N[C@H]3CN21` [MITOMYCIN A] as the compound, how does the T/C [3] read?
A: 180%

Q: And the minimal effective dose at 3.2 mg/kg [12]?
A: 0.05 mg/kg

Q: And the T/C [27]?
A: 177%

Q: And the logP [4]?
A: 0.26

Q: What about the minimal effective dose at 0.3 mg/kg [28] of the same compound?
A: 0.05 mg/kg
